Data: publication PMC11491004, “CHF6523 data suggest that the phosphoinositide 3-kinase delta isoform is not a suitable target for the management of COPD” (Respiratory Research, 2024)

Columns and labels:
Assay type in all cases: in vivo, human
[1] = Cough episodes: daily diary and visual analogue scale; conditions: for Mean cough VAS score (95% CI): VAS 100 mm, 0 no cough, 100 worst cough ever
Procedure: (§1) Fold-change from baseline in cell counts, target biomarkers in sputum and blood, and PIP3 were log-transformed and analysed using an analysis of covariance (ANCOVA) model, with treatment, patient, and period as fixed effects, and baseline value as covariate. Changes from baseline in spirometry, forced oscillation and CAT endpoints were analysed using a similar ANCOVA model, but without log transformation. Rescue medication data were analysed using an analysis of variance model, including treatment, period and patient as fixed effects. Other data, including the proportion of days on which patients coughed and the cough VAS results, are presented descriptively only. Further details, including the transcriptomics, mass-spectrometry and Olink proteomics, bioinformatics and multi-omic data integration are in the supplement.

sputum cell counts = assay: Cell count in induced sputum; conditions: p < 0.05
Procedure: (§2) All assessment timings were based on the morning dose. Pre-dose on Days 1 and 28 of each treatment period, blood samples were taken for pharmacokinetic analyses, followed by forced oscillation (including slow vital capacity manoeuvres for inspiratory capacity [IC] and vital capacity [VC]), spirometry (forced expiratory volume in 1 s [FEV1] and forced vital capacity [FVC]), and the COPD Assessment Test (CAT). Blood samples were also taken up to 12 h post-dose on Days 1 and 28 for pharmacokinetic analyses, with blood samples for biomarker assessment pre-dose on Day 1 and 2 h post-dose on Day 28, and spirometry pre-dose on Days 20 and 24. […]
as §1, with “Other data, including the proportion of days on which patients coughed and the cough VAS results, are presented descriptively only. Further details, including the transcriptomics, mass-spectrometry and Olink proteomics, bioinformatics and multi-omic data integration are in the supplement.” left out
To induce sputum, patients with FEV1 ≥0.8 L inhaled nebulised hypertonic saline at increasing concentrations (3%, then 4% and finally 5%), with FEV1 monitored for safety after each concentration. […]

proteins in sputum = assay: Tandem mass tag mass spectrometry proteomics in sputum; conditions: FDR < 0.05, mixed effect modelling
Procedure: Sputum samples were weighed and solubilised with sodium dodecyl sulphate and dithiothreitol, and were incubated for 10 min at 95°C. First, quantification was performed by the Bradford Assay, with 50 μg of each sample digested with Trypsin following the S-trap micro protocol; 25 μg of each sample was dried, and reconstituted with TMT10plex (Thermo Scientific) following the manufacturer’s instructions. The 98 samples were divided into eleven TMT10plexes groups; 10 μg of each sample were combined, taking into account the peptide quantification, and after combining samples were desalted.
Samples were analysed with a Thermo Scientific Dionex Ultimate 3000 nano RSLC coupled to a Orbitrap Fusion Lumos mass spectrometer (Thermo Scientific) fitted with nanoESI source. Peptides were separated on a EasySpray (75 µm x 500 mm, 2 μm, 100Å) (Thermo Scientific) heated to 40°C at 300 nL/min. The mass spectrometer was operated in data-dependent acquisition (DDA) mode. […] For the MS3 analyses for TMT quantification, multiple fragment ions from the previous MS2 scan (SPS ions) were co- selected and fragmented by HCD.
Database searches were performed with Proteome Discoverer v2.4 software (Thermo Scientific) using Sequest HT search engine and UniProt Homo Sapiens (2023) and contaminants. […] TMT reporter ions intensities were used for protein quantification. […]

[2] = test system: target biomarkers in sputum; assay: Target biomarkers of inflammation in induced sputum; conditions: p < 0.05; with the exception of IL-5
Procedure: as §2
as §1, with “Other data, including the proportion of days on which patients coughed and the cough VAS results, are presented descriptively only. Further details, including the transcriptomics, mass-spectrometry and Olink proteomics, bioinformatics and multi-omic data integration are in the supplement.” left out

[3] = Spirometry (pre-dose FEV1 and FVC)
Procedure: All assessment timings were based on the morning dose. Pre-dose on Days 1 and 28 of each treatment period, blood samples were taken for pharmacokinetic analyses, followed by forced oscillation (including slow vital capacity manoeuvres for inspiratory capacity [IC] and vital capacity [VC]), spirometry (forced expiratory volume in 1 s [FEV1] and forced vital capacity [FVC]), and the COPD Assessment Test (CAT). Blood samples were also taken up to 12 h post-dose on Days 1 and 28 for pharmacokinetic analyses, with blood samples for biomarker assessment pre-dose on Day 1 and 2 h post-dose on Day 28, and spirometry pre-dose on Days 20 and 24. Sputum was induced prior to each treatment period for baseline determination of biomarkers, and post-dose on Day 20 for collection of phosphatidylinositol (3,4,5)-trisphosphate (PIP3), and on Days 24 and 28 for collection of biomarkers.
as §1

**Q.** Which “Days on which patients coughed, adjusted mean” value ([1]; daily diary, 2 mg twice daily inhaled, 95% CI 63.5%, 84.5%) does the source give for `C[C@@H](c1oc(=O)c2ccccc2c1-c1cccc(CN2CCN(C)CC2)c1)n1nc(-c2cncc(O)c2)c2c(N)ncnc21` [CHF6523] here?
**A.** The value was 74.0%.

**Q.** What about the “Mean cough VAS score (95% CI)” value ([1]; evening) of the same compound?
**A.** The value was 31.3 (22.1, 40.4) mm.

**Q.** What about the “Cough events not resolving within 1 h after inhalation” value ([1]; in vivo) of the same compound?
**A.** The value was 3.2%.

**Q.** And the “Mean cough VAS score (95% CI)” value ([1]; morning)?
**A.** Its value is 30.3 (95% CI 21.3, 39.3) mm.

**Q.** What about the “CHF6523–placebo differences in sputum cell counts” value (sputum cell counts) of the same compound?
**A.** Its value is “no statistically significant”.

**Q.** And the “Proteins significantly modulated by treatment, of the 413 evaluated” value (proteins in sputum)?
**A.** Its value is “only BPI fold-containing family B member 1 (BPIFB1) was significantly modulated by treatment”.

**Q.** And the “CHF6523–placebo differences in target biomarkers in sputum” value [2]?
**A.** The value was “no statistically significant”.

**Q.** What about the “Change from baseline in pre-dose FEV1: CHF6523–placebo difference (95% CI)” value ([3]; Day 20) of the same compound?
**A.** The value was −79 (−149, −9) mL.

**Q.** What about the “Change from baseline in pre-dose FVC: CHF6523–placebo difference (95% CI)” value ([3]; Day 20) of the same compound?
**A.** Its value is −38 (−191, 116) mL.

**Q.** What about the “Change from baseline in pre-dose FEV1: CHF6523–placebo difference (95% CI)” value ([3]; Day 24) of the same compound?
**A.** Its value is −79 (−141, −17) mL.

**Q.** And the “Change from baseline in pre-dose FVC: CHF6523–placebo difference (95% CI)” value ([3]; Day 24)?
**A.** The value was −25 (−170, 120) mL.

**Q.** And the “Change from baseline in pre-dose FEV1: CHF6523–placebo difference (95% CI)” value ([3]; Day 28)?
**A.** The value was −146 (−242, −50) mL.
